Results taken from patent publication US20070197532A1, “GLUCOKINASE ACTIVATORS” (priority 2005, published 2007).
pEC50: −log10 of the molar value.

What follows are molecules tested against T1, glucokinase (GK) (Homo sapiens, UniProt P35557) (assay: enzymatic glucokinase activity assay (ATP consumption, KinaseGlo luminescence)). Details: recombinant GK; 5 μM ATP, 5 mM Glucose, 2% DMSO, 60 min at room temperature; Kact = concentration giving 50% of the maximal increase in GK activity; read-out: pKact.
T1 construct: I.D. No. 1 corresponds to residues 13-466 of glucokinase; made in house; host or cells: E. coli DH10b-T1r
T1 sequence (P35557 with tags, fused parts or gaps isoform P35557-2): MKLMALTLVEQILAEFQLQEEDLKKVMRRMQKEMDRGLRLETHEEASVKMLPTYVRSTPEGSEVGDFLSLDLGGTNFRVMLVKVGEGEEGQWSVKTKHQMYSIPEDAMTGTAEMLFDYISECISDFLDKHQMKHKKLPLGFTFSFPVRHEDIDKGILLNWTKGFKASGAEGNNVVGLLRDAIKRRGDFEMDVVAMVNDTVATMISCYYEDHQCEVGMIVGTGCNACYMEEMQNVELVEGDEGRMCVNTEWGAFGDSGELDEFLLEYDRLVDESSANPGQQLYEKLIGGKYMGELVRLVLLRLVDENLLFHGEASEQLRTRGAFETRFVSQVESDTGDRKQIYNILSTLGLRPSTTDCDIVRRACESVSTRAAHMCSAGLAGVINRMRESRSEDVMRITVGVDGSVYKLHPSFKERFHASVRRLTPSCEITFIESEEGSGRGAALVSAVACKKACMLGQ
Assay type: biochemical
From the text: The activity of compounds as glucokinase activators may be assayed in vitro, in vivo or in a cell line. Provided below is an enzymatic glucokinase activity assay.
Purified glucokinase may be obtained as follows. DNA encoding residues 12-465 of the full-length sequence of the human enzyme may be amplified by PCR and cloned into the HindIII and EcoRI sites of pFLAG-CTC (Sigma). SEQ. I.D. No. 1 corresponds to residues 13-466 of glucokinase.
The expression of recombinant glucokinase protein may be carried out by transformation and growth of DH10b-T1r E. coli cells incorporating the (pFLAG-CTC) plasmid in LB media. Protein expression can be induced in this system by the addition of IPTG to the culture medium.
Recombinant protein may be isolated from cellular extracts by passage over Sepharose Q Fast Flow resin (Pharmacia). This partially purified GK extract may then be further purified by a second passage over Poros HQ10 (Applied Biosystems). The purity of GK may be determined on denaturing SDS-PAGE gel. Purified GK may then be concentrated to a final concentration of 20.0 mg/ml. After flash freezing in liquid nitrogen, the proteins can be stored at −78° C. in a buffer containing 25 mM TRIS-HCl pH 7.6, 50 mM NaCl, and 0.5 mM TCEP.
The activation properties of compounds for GK may be determined using a black 384-well-plate format under the following reaction conditions: 25 mM Hepes pH 7.2, 25 mM NaCl, 10 mM MgCl2, 0.01% Brij35, 1 mM DTT, 5 μM ATP, 5 mM Glucose 2% DMSO. The amount of ATP consumed may be determined quantitatively by addition of equal volume of luciferase reagent (luciferase+beetle luciferin—KinaseGlo Luminescent Kinase Assay kit from Promega). The luminescence intensity may be measured by using the Analyst HT from LJL Biosystems.
The assay reaction may be initiated as follows: 4 μl of substrate mixture (12.5 μM ATP and 12.5 mM Glucose) was added to each well of the plate, followed by the addition of 2 μl of activator (2 fold serial dilutions for 11 data points for each activator) containing 10% DMSO. 4 μL of 1.25 nM GK solution may be added to initiate the reaction. The reaction mixture may then be incubated at room temperature for 60 min, and quenched and developed by addition of 10 μL of luciferase reagent. Luminescence intensities of the resulting reaction mixtures may be measured after a 10 min incubation at room temperature. The luminescence intensity may be measured by using the Analyst HT from LJL Biosystems.
pKact and % ACTmax values may be calculated by non-linear curve fitting of the compound concentrations and luminescence intensities to a standard inhibition/activation equation.

SMILES | pEC50
COc1ccccc1-c1nc(SCc2ccccc2F)n[nH]1 | 5.40 to 5.60
COc1ccc(NC(=O)c2ccoc2)cc1-c1cc(-c2ccccc2)n[nH]1 | 5.40 to 5.60
c1ccc(-c2cc(-c3ccccc3OCc3ccccn3)[nH]n2)cc1 | 5.40 to 5.60
COc1ccc(NC(=O)c2cncs2)cc1-c1cc(-c2ccccc2)n[nH]1 | ≤ 5.30
COc1ccccc1-c1cc(-c2ccc(N3CCOCC3)nc2)n[nH]1 | ≤ 5.30
COc1ccccc1-c1cc(-c2ccc(C#N)cc2)n[nH]1 | 5.40 to 5.60
FC(F)(F)COc1ccc(OCC(F)(F)F)c(-c2ccn[nH]2)c1 | ≥ 5.70
c1ccc(-c2cc(-c3cccc4c3OCC4)[nH]n2)cc1 | 5.40 to 5.60
Fc1ccc(-c2cc(-c3cccc(Oc4ncccn4)c3)[nH]n2)cc1 | ≤ 5.30
COc1ccc(NC(=O)Cc2ccccc2)cc1-c1cc(-c2ccccc2)n[nH]1 | ≥ 5.70
CC1(C)Cc2cccc(-c3cc(-c4ccccc4)n[nH]3)c2O1 | ≥ 5.70
Cn1ccnc1COc1ccccc1-c1cc(-c2ccc(F)cc2)n[nH]1 | ≥ 5.70
Clc1cccc(Oc2ccccc2-c2cc(-c3cccnc3)n[nH]2)c1 | 5.40 to 5.60
c1ccc(COc2ccc(-c3cc(-c4ccccc4)n[nH]3)c(OCc3ccccn3)c2)cc1 | ≥ 5.70
COc1ccccc1-c1cc(-c2ccccc2)n[nH]1 | 5.40 to 5.60
COc1ccccc1-c1cc(-c2cccc(NC(=O)c3ccccc3)c2)n[nH]1 | 5.40 to 5.60
COc1cc(-c2ccc3ncn(CC4CCCCC4)c3c2)[nH]n1 | ≤ 5.30
Fc1ccc(-c2cc(-c3ccccc3Oc3ccccc3)[nH]n2)cc1 | 5.40 to 5.60
COc1cc(NC(=O)c2ccccc2)ccc1-c1cc(-c2ccccc2)n[nH]1 | ≥ 5.70
COc1ccccc1-c1cc(-c2cccc(NC(C)=O)c2)n[nH]1 | ≤ 5.30
COc1ccccc1-c1cc(-c2cccc(C#N)c2)n[nH]1 | 5.40 to 5.60
COc1ccccc1-c1cc(-c2ccc(F)cc2)n[nH]1 | 5.40 to 5.60

SMILES | pEC50
COc1ccccc1-c1nnc(SCC(=O)Nc2ccc(C)c(C)c2)[nH]1 | ≥ 5.70
COc1cc([N+](=O)[O-])ccc1-c1cc(-c2ccccc2)n[nH]1 | ≥ 5.70
COCCOc1cc(OCc2ccccc2)ccc1-c1cc(-c2ccccc2)n[nH]1 | ≥ 5.70
COc1ccccc1-c1nc(SCC(=O)N2CCOCC2)n[nH]1 | ≥ 5.70
COc1ccccc1-c1cc(-c2ccc(N)cc2)n[nH]1 | ≤ 5.30
COc1ccccc1-c1cc(-c2ccc(N(C)C)nc2)n[nH]1 | 5.40 to 5.60
COc1ccc(CNc2ccc(-c3cc(-c4ccccc4OC)[nH]n3)cn2)c(OC)c1 | ≥ 5.70
Fc1ccccc1CSc1n[nH]c(-c2ccccc2OCc2ccccc2)n1 | ≥ 5.70
COc1cc(NCc2ccccc2)ccc1-c1cc(-c2ccccc2)n[nH]1 | 5.40 to 5.60
COC[C@H](C)Oc1cc(OCCc2ccsc2)cc(-c2cc(OC)n[nH]2)c1 | ≥ 5.70
COc1ccc(NCc2ccccc2)cc1-c1cc(-c2ccccc2)n[nH]1 | ≤ 5.30
COc1ccccc1-c1nnc(SCC(=O)Nc2ccccc2[N+](=O)[O-])[nH]1 | ≥ 5.70
Brc1cc2c(c(-c3cc(-c4ccccc4)n[nH]3)c1)OCC2 | ≤ 5.30
COCCNc1ccc(-c2cc(-c3ccccc3OC)[nH]n2)cn1 | 5.40 to 5.60
COc1ccccc1-c1cc(-c2cccc(F)c2)[nH]n1 | ≤ 5.30
COc1ccccc1-c1cc(-c2cccc(N)c2)n[nH]1 | 5.40 to 5.60
COc1ccc(NC(=O)c2ccccc2)cc1-c1cc(-c2ccccc2)n[nH]1 | 5.40 to 5.60
COc1ccccc1-c1nc(SCC(=O)c2ccc(O)c(O)c2)n[nH]1 | 5.40 to 5.60
COc1ccccc1-c1cc(-c2ccccc2Cl)n[nH]1 | 5.40 to 5.60
c1ccc(-c2cc(-c3ccccc3Oc3cccnc3)[nH]n2)cc1 | 5.40 to 5.60
COc1ccc(F)cc1-c1cc(-c2cccc(F)c2)[nH]n1 | 5.40 to 5.60

The remaining lines, values ahead:

pEC50 | SMILES
5.40 to 5.60 | COc1ccc(COc2ccc(-c3cc(-c4ccccc4)n[nH]3)c(OC)c2)cc1
≤ 5.30 | COc1ccc(F)cc1-c1cc(OCc2ccccc2F)n[nH]1
≥ 5.70 | COc1cc(-c2cc(OCc3ncccc3C)cc(Oc3ccc(S(C)(=O)=O)cc3)c2)[nH]n1
5.40 to 5.60 | COc1ccc(NS(=O)(=O)c2ccccc2)cc1-c1cc(-c2ccccc2)n[nH]1
≤ 5.30 | Cc1cccnc1COc1cc(Oc2ccc(S(C)(=O)=O)cc2)cc(-c2cc(O)n[nH]2)c1
≥ 5.70 | COc1cc(-c2cc(OCc3ccccc3C)cc(Oc3ccc(S(C)(=O)=O)cc3)c2)[nH]n1
≤ 5.30 | COc1ccccc1-c1cc(OCc2ccccc2F)n[nH]1
≥ 5.70 | COc1cc(OCc2ccccc2)ccc1-c1cc(-c2ccc(F)cc2)n[nH]1
5.40 to 5.60 | COC[C@H](C)Oc1cc(Oc2ccc(S(C)(=O)=O)cc2)cc(-c2cc(OCC(=O)OC)n[nH]2)c1
≥ 5.70 | COC[C@H](C)Oc1cc(Oc2ccc(S(C)(=O)=O)cc2)cc(-c2cc(OC)n[nH]2)c1
≤ 5.30 | CS(=O)(=O)c1ccc(Oc2cc(OCc3ccccc3F)cc(-c3cc(O)n[nH]3)c2)cc1
≥ 5.70 | COc1cc(-c2cc(OCc3ccccc3F)cc(Oc3ccc(S(C)(=O)=O)cc3)c2)[nH]n1
5.40 to 5.60 | COC[C@H](C)Oc1cc(OCc2ccc(S(C)(=O)=O)cc2)cc(-c2cc(OC)n[nH]2)c1
≤ 5.30 | Fc1ccccc1COc1cc(-c2cccc3c2OCC3)[nH]n1
≤ 5.30 | Cc1ccccc1COc1cc(Oc2ccc(S(C)(=O)=O)cc2)cc(-c2cc(O)n[nH]2)c1
≤ 5.30 | COC[C@H](C)Oc1cc(OCc2ccccc2F)cc(-c2cc(OC)n[nH]2)c1
≥ 5.70 | Fc1ccc(-c2cc(-c3cccc(Oc4ccccc4)c3)[nH]n2)cc1
≥ 5.70 | COc1cc(-c2cc(Oc3ccc(S(C)(=O)=O)cc3)cc(OC3CCCC3)c2)[nH]n1
